Data taken from patent US10329309B2, “3-(3H-imidazo[4,5-B]pyridin-2-yl)-1H-pyrazolo[4,3-B]pyridines and therapeutic uses thereof” (Samumed, LLC, priority 2015, dated 2019).

Tests used:
[1] = test system: Wnt activity (Sp5-Luc reporter, SW480 colon carcinoma cells); experiment: Screening assay for Wnt activity: Sp5-Luc reporter gene assay in SW480 cells; format: cell-based; settings: Homo sapiens; for inhibition at 10 µM: 10 μM compound, read-out: percent inhibition at 10 μM (given for EC50 of >10 μM); for EC50: overnight incubation, 10-point dose-response from 10 μM
Description: The screening assay for Wnt activity is described as follows. Reporter cell lines can be generated by stably transducing cancer cell lines (e.g., colon cancer) or primary cells (e.g., IEC-6 intestinal cells) with a lentiviral construct that includes a Wnt-responsive promoter driving expression of the firefly luciferase gene.
SW480 colon carcinoma cells were transduced with a lentiviral vector expressing luciferase with a human Sp5 promoter consisting of a sequence of eight TCF/LEF binding sites. SW480 cells stably expressing the Sp5-Luc reporter gene and a hygromycin resistance gene were selected by treatment with 150 μg/mL of hygromycin for 7 days. These stably transduced SW480 cells were expanded in cell culture and used for all further screening activities. Each compound was dissolved in DMSO as a 10 mM stock and used to prepare compound source plates. Serial dilution (1:3, 10-point dose-response curves starting from 10 μM) and compound transfer was performed using the ECHO 550 (Labcyte, Sunnyvale, Calif.) into 384-well white solid bottom assay plates (Greiner Bio-One) with appropriate DMSO backfill for a final DMSO concentration of 0.1%. For Sp5-Luc reporter gene assays, the cells were plated at 4,000 cells/well in 384-well plates with medium containing 1% fetal bovine serum and incubated overnight at 37° C. and 5% CO2. Following incubation, 20 μl of BrightGlo luminescence reagent (Promega) was added to each well of the 384-well assay plates. The plates were placed on an orbital shaker for 2 min and then luminescence was quantified using the Envision (Perkin Elmer) plate reader. Readings were normalized to DMSO only treated cells, and normalized activities were utilized for EC50 calculations using the dose-response log (inhibitor) vs. response -variable slope (four parameters) nonlinear regression feature available in GraphPad Prism 5.0 (or Dotmatics). For EC50 of >10 μM, the percent inhibition at 10 μM is provided.

[2] = test system: primary human fibroblasts derived from IPF patients (LL29 cells), α-smooth muscle actin (αSMA); experiment: Inhibition of the fibrotic process: TGF-β1-treated primary human fibroblasts from IPF patients, αSMA staining; format: cell-based; settings: Fibroblast, 96 h, 4 days; for EC50: LL29 fibroblasts from IPF patients, TGF-β1 20 ng/mL, inhibition of fibrotic process; for inhibition at 10 µM: LL29 fibroblasts, TGF-β1 treated, read-out: percent inhibition at 10 μM (given for EC50 of >10 μM)
Description: Representative compounds were screened using primary human fibroblasts (derived from IPF patients) treated with TGF-β1 to determine their ability to inhibit the fibrotic process.
Primary human fibroblasts derived from IPF patients (LL29 cells) [^1Xiaoqiu Liu, et. al., “Fibrotic Lung Fibroblasts Show Blunted Inhibition by cAMP Due to Deficient cAMP Response Element-Binding Protein Phosphorylation”, Journal of Pharmacology and Experimental Therapeutics (2005), 315(2), 678-687; ^2Watts, K. L., et. al., “RhoA signaling modulates cyclin D1 expression in human lung fibroblasts; implications for idiopathic pulmonary fibrosis”, Respiratory Research (2006), 7(1), 88] were obtained from American Type Culture Collection (ATCC) and expanded in F12 medium supplemented with 15% Fetal Bovine Serum and Penicillin/Streptomycin.
Each compound was dissolved in DMSO as a 10 mM stock and used to prepare compound source plates. Serial dilution (1:2, 11-point dose-response curves from 10 μM to 1.87 nM) and compound transfer was performed using the ECHO 550 (Labcyte, Sunnyvale, Calif.) into 384-well clear bottom assay plates (Greiner Bio-One) with appropriate DMSO backfill for a final DMSO concentration of 0.1%. LL29 cells are plated at 1,500 cells/well in 80 μL/well F12 medium supplemented with 1% Fetal Bovine Serum. One hour after addition of the cells, TGF-β1 (Peprotech; 20 ng/mL) was added to the plates to induce fibrosis (ref. 1 and 2 above). Wells treated with TGF-β1 and containing DMSO were used as controls. Cells were incubated at 37° C. and 5% CO2 for 4 days. Following incubation for 4 days, SYTOX green nucleic acid stain (Life Technologies [Thermo Fisher Scientific]) was added to the wells at a final concentration of 1 μM and incubated at room temperature for 30 min. Cells were then fixed using 4% formaldehyde (Electron Microscopy Sciences), washed 3 times with PBS followed by blocking and permeabilization using 3% Bovine Serum Albumin (BSA; Sigma) and 0.3% Triton X-100 (Sigma) in PBS. Cells were then stained with antibody specific to α-smooth muscle actin (αSMA; Abcam) (ref. 1 and 2 above) in 3% Bovine Serum Albumin (BSA; Sigma) and 0.3% Triton X-100 (Sigma) in PBS, and incubated overnight at 4° C. Cells were then washed 3 times with PBS, followed by incubation with Alexa Flor-647 conjugated secondary antibody (Life Technologies [Thermo Fisher Scientific]) and DAPI at room temperature for 1 hour. Cells were then washed 3 times with PBS and plates were sealed for imaging. αSMA staining was imaged by excitation at 630 nm and emission at 665 nm and quantified using the Compartmental Analysis program on the CellInsight CX5 (Thermo Scientific). Dead or apoptotic cells were excluded from analysis based on positive SYTOX green staining. % of total cells positive for αSMA were counted in each well and normalized to the average of 11 wells treated with TGF-β1 on the same plate using Dotmatics' Studies Software. The normalized averages (fold change over untreated) of 3 replicate wells for each compound concentration were used to create dose-responses curves and EC50 values were calculated using non-linear regression curve fit in the Dotmatics' Studies Software. For EC50 of >10 μM, the percent inhibition at 10 μM is provided.

| SMILES | inhibition at 10 µM [1] | EC50 [1] | EC50 [2] | inhibition at 10 µM [2] |
| --- | --- | --- | --- | --- |
| c1cc(-c2ccc3[nH]nc(-c4nc5c(-c6ccncc6)ccnc5[nH]4)c3n2)ccn1 [Compound 130, 5-(pyridin-4-yl)-3-(7-(pyridin-4-yl)-3H-imidazo[4,5-b]pyridin-2-yl)-1H-pyrazolo [4,3-b]pyridine] | 12.1% | > 10 µM | > 10 µM | 39.3% |
| CN(C)c1cncc(-c2ccc3[nH]nc(-c4nc5c(N6CCCCC6)ccnc5[nH]4)c3n2)c1 [Compound 175, N,N-dimethyl-5-(3-(7-(piperidin-1-yl)-3H-imidazo[4,5-b]pyridin-2-yl)-1H-pyrazolo [4,3-b]pyridin-5-yl)pyridin-3-amine] | 0% | > 10 µM | 2.53 µM |  |
| O=C(CC1CCNCC1)Nc1cncc(-c2ccc3[nH]nc(-c4nc5c(-c6ccccn6)ccnc5[nH]4)c3n2)c1 [Compound 593, 2-(Piperidin-4-yl)-N-(5-(3-(7-(pyridin-2-yl)-3H-imidazo[4,5-b]pyridin-2-yl)-1H-pyrazolo[4,3-b]pyridin-5-yl)pyridin-3-yl)acetamide] | 29.3% | > 10 µM | 0.913 µM |  |
| Cc1cn(-c2ccnc3[nH]c(-c4n[nH]c5ccc(-c6cncc(NC(=O)C7CCC7)c6)nc45)nc23)cn1 [Compound 217, N-(5-(3-(7-(4-methyl-1H-imidazol-1-yl)-3H-imidazo[4,5-b]pyridin-2-yl)-1H-pyrazolo[4,3-b]pyridin-5-yl)pyridin-3-yl)cyclobutanecarboxamide] | 13.9% | > 10 µM | 6.1 µM |  |
| CN(C)CCNc1cc(F)cc(-c2ccnc3[nH]c(-c4n[nH]c5ccc(-c6cncc(OCCN7CCCC7)c6)nc45)nc23)c1 [Compound 786, N^1-(3-Fluoro-5-(2-(5-(5-(2-(pyrrolidin-1-yl)ethoxy)pyridin-3-yl)-1H-pyrazolo[4,3-b]pyridin-3-yl)-3H-imidazo[4,5-b]pyridin-7-yl)phenyl)-N^2,N^2-dimethylethane-1,2-diamine] |  | 6.25 µM | 2.9 µM |  |
| O=C(Nc1cncc(-c2ccc3[nH]nc(-c4nc5c(-c6ccccc6F)ccnc5[nH]4)c3n2)c1)C1CCCC1 [Compound 78, N-(5-(3-(7-(2-fluorophenyl)-3H-imidazo[4,5-b]pyridin-2-yl)-1H-pyrazolo [4,3-b]pyridin-5-yl)pyridin-3-yl)cyclopentanecarboxamide] | 39.4% | > 10 µM | 2.83 µM |  |
| COc1cccc(-c2ccnc3[nH]c(-c4n[nH]c5ccc(-c6cncc(OC7CCNCC7)c6)nc45)nc23)c1 [Compound 1025, 3-(7-(3-Methoxyphenyl)-3H-imidazo[4,5-b]pyridin-2-yl)-5-(5-(piperidin-4-yloxy)pyridin-3-yl)-1H-pyrazolo[4,3-b]pyridine] | 39.2% | > 10 µM | 2.91 µM |  |
| CCC(=O)Nc1cncc(-c2ccc3[nH]nc(-c4nc5c(-c6cccc(F)c6)ccnc5[nH]4)c3n2)c1 [Compound 1, N-(5-(3-(7-(3-fluorophenyl)-3H-imidazo[4,5-b]pyridin-2-yl)-1H-pyrazolo [4,3-b]pyridin-5-yl)pyridin-3-yl)propionamide] | 51.6% | > 10 µM | > 10 µM | 3% |
| Cc1ccc(-c2ccnc3[nH]c(-c4n[nH]c5ccc(-c6cncc(OC7CCCCC7)c6)nc45)nc23)s1 [Compound 735, 5-(5-(Cyclohexyloxy)pyridin-3-yl)-3-(7-(5-methylthiophen-2-yl)-3H-imidazo[4,5-b]pyridin-2-yl)-1H-pyrazolo[4,3-b]pyridine] |  | 0.984 µM | 0.139 µM |  |
| CN1CCN(c2ccnc3[nH]c(-c4n[nH]c5ccc(-c6cncnc6)nc45)nc23)CC1 [Compound 251, 3-(7-(4-Methylpiperazin-1-yl)-3H-imidazo[4,5-b]pyridin-2-yl)-5-(pyrimidin-5-yl)-1H-pyrazolo[4,3-b]pyridine] | 16.5% | > 10 µM | 4.36 µM |  |
| Fc1ccc(-c2ccnc3[nH]c(-c4n[nH]c5ccc(-c6cncnc6)nc45)nc23)cc1 [Compound 55, 3-(7-(4-Fluorophenyl)-3H-imidazo[4,5-b]pyridin-2-yl)-5-(pyrimidin-5-yl)-1H-pyrazolo[4,3-b]pyridine] | 20.2% | > 10 µM | 0.063 µM |  |
| CN1CCN(c2ccnc3[nH]c(-c4n[nH]c5ccc(-c6cncc(N)c6)nc45)nc23)CC1 [Compound 227, 5-(3-(7-(4-methylpiperazin-1-yl)-3H-imidazo[4,5-b]pyridin-2-yl)-1H-pyrazolo[4,3-b]pyridin-5-yl)pyridin-3-amine] | 8.2% | > 10 µM | > 10 µM | 32.8% |
| O=C(Nc1cncc(-c2ccc3[nH]nc(-c4nc5cccnc5[nH]4)c3n2)c1)C1CCCCC1 [Compound 275, N-(5-(3-(3H-Imidazo[4,5-b]pyridin-2-yl)-1H-pyrazolo[4,3-b]pyridin-5-yl)pyridin-3-yl)cyclohexanecarboxamide] | 3.1% | > 10 µM | 3.96 µM |  |
| C1=C(c2ccc3[nH]nc(-c4nc5c(-c6ccc7c(c6)OCO7)ccnc5[nH]4)c3n2)CCNC1 [Compound 1109, 3-(7-(Benzo[d][1,3]dioxol-5-yl)-3H-imidazo[4,5-b]pyridin-2-yl)-5-(1,2,3,6-tetrahydropyridin-4-yl)-1H-pyrazolo[4,3-b]pyridine] | 14.5% | > 10 µM | 6.2 µM |  |
| c1cnc2[nH]c(-c3n[nH]c4ccc(-c5cn[nH]c5)nc34)nc2c1 [Compound 651, 3-(3H-Imidazo[4,5-b]pyridin-2-yl)-5-(1H-pyrazol-4-yl)-1H-pyrazolo[4,3-b]pyridine] | 12% | > 10 µM | > 10 µM | 28.6% |
| CCCCC(=O)Nc1cncc(-c2ccc3[nH]nc(-c4nc5c(-c6ccccn6)ccnc5[nH]4)c3n2)c1 [Compound 159, N-(5-(3-(7-(pyridin-2-yl)-3H-imidazo[4,5-b]pyridin-2-yl)-1H-pyrazolo[4,3-b]pyridin-5-yl)pyridin-3-yl)pentanamide] | 12.6% | > 10 µM | > 10 µM | 15.4% |
| CCNCc1cncc(-c2ccc3[nH]nc(-c4nc5c(-c6ccccn6)ccnc5[nH]4)c3n2)c1 [Compound 146, N-((5-(3-(7-(pyridin-2-yl)-3H-imidazo[4,5-b]pyridin-2-yl)-1H-pyrazolo[4,3-b]pyridin-5-yl)pyridin-3-yl)methyl)ethanamine] | 10.6% | > 10 µM | 1.13 µM |  |
